Reference: PubChem BioAssay (NCI)
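Where inhibition never reached the appropriate level, the endpoint shown equals the highest concentration tested. Otherwise, values were interpolated linearly from a five-concentration, 48-hour dose response in 96-well plates. GI50 = concentration required for 50% inhibition of growth. TGI: total growth inhibition.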

Tests used:
Assay in all cases: NCI anticancer screen, dose series, 48 h
MOLT-4 leukemia = tested on: MOLT-4 leukemia
NCI-H226 lung = tested on: NCI-H226 lung
NCI-H23 lung = tested on: NCI-H23 lung
NCI-H460 lung = tested on: NCI-H460 lung
NCI-H522 lung = tested on: NCI-H522 lung
OVCAR-3 ovarian = tested on: OVCAR-3 ovarian
OVCAR-4 ovarian = tested on: OVCAR-4 ovarian
OVCAR-5 ovarian = tested on: OVCAR-5 ovarian
OVCAR-8 ovarian = tested on: OVCAR-8 ovarian
PC-3 prostate = tested on: PC-3 prostate
RPMI-8226 leukemia = tested on: RPMI-8226 leukemia
RXF 393 renal = tested on: RXF 393 renal
SF-268 CNS = tested on: SF-268 CNS
SF-295 CNS = tested on: SF-295 CNS
SF-539 CNS = tested on: SF-539 CNS
SK-MEL-2 melanoma = tested on: SK-MEL-2 melanoma
SK-MEL-28 melanoma = tested on: SK-MEL-28 melanoma
SK-MEL-5 melanoma = tested on: SK-MEL-5 melanoma
SK-OV-3 ovarian = tested on: SK-OV-3 ovarian
SN12C renal = tested on: SN12C renal
SNB-19 CNS = tested on: SNB-19 CNS
SR leukemia = tested on: SR leukemia
SW-620 colon = tested on: SW-620 colon
T-47D breast = tested on: T-47D breast
TK-10 renal = tested on: TK-10 renal
U251 CNS = tested on: U251 CNS
UACC-257 melanoma = tested on: UACC-257 melanoma
UACC-62 melanoma = tested on: UACC-62 melanoma
UO-31 renal = tested on: UO-31 renal

For `Cn1cc(-c2cc(N)n3nc(-c4c[nH]c5ccc(F)cc45)cc3n2)c2cc(Br)cnc21`, the TGI (MOLT-4 leukemia) was 21.6 µM, the GI50 (NCI-H226 lung) was 24.3 µM and the TGI (NCI-H226 lung) was over 100 µM. The GI50 (NCI-H23 lung) was 75.3 µM, the TGI (NCI-H23 lung) was over 100 µM and the GI50 (NCI-H460 lung) was 6.63 µM. It also gave a TGI (NCI-H460 lung) of 24.8 µM, a GI50 (NCI-H522 lung) of 5.77 µM and a TGI (NCI-H522 lung) of 40.4 µM. The GI50 (OVCAR-3 ovarian) was over 100 µM, the TGI (OVCAR-3 ovarian) was over 100 µM and the GI50 (OVCAR-4 ovarian) was 22.5 µM. For the same compound, the TGI (OVCAR-4 ovarian) was over 100 µM, the GI50 (OVCAR-5 ovarian) was 21.9 µM and the TGI (OVCAR-5 ovarian) was over 100 µM. The GI50 (OVCAR-8 ovarian) was 16.8 µM, the TGI (OVCAR-8 ovarian) was 69.6 µM and the GI50 (PC-3 prostate) was 11.4 µM. The TGI (PC-3 prostate) was over 100 µM, the GI50 (RPMI-8226 leukemia) was 5.67 µM and the TGI (RPMI-8226 leukemia) was 48.5 µM. For the same compound, the GI50 (RXF 393 renal) was 2630 nM, the TGI (RXF 393 renal) was 8.47 µM and the GI50 (SF-268 CNS) was over 100 µM. For the same compound, the TGI (SF-268 CNS) was over 100 µM, the GI50 (SF-295 CNS) was 9.9 µM and the TGI (SF-295 CNS) was 39.1 µM. The GI50 (SF-539 CNS) was 13.7 µM, the TGI (SF-539 CNS) was 41.2 µM and the GI50 (SK-MEL-2 melanoma) was 26.4 µM. For the same compound, the TGI (SK-MEL-2 melanoma) was over 100 µM, the GI50 (SK-MEL-28 melanoma) was 14.5 µM and the TGI (SK-MEL-28 melanoma) was 30.2 µM. It also gave a GI50 (SK-MEL-5 melanoma) of 31.3 µM, a TGI (SK-MEL-5 melanoma) of over 100 µM and a GI50 (SK-OV-3 ovarian) of over 100 µM. The TGI (SK-OV-3 ovarian) was over 100 µM, the GI50 (SN12C renal) was over 100 µM and the TGI (SN12C renal) was over 100 µM. For the same compound, the GI50 (SNB-19 CNS) was 37.7 µM, the TGI (SNB-19 CNS) was over 100 µM and the GI50 (SR leukemia) was 4.36 µM. For the same compound, the TGI (SR leukemia) was over 100 µM, the GI50 (SW-620 colon) was 6.93 µM and the TGI (SW-620 colon) was 21.9 µM. For the same compound, the GI50 (T-47D breast) was 34 µM, the TGI (T-47D breast) was over 100 µM and the GI50 (TK-10 renal) was 26.5 µM. It also gave a TGI (TK-10 renal) of over 100 µM, a GI50 (U251 CNS) of 5.72 µM and a TGI (U251 CNS) of 28.9 µM. The GI50 (UACC-257 melanoma) was 23.3 µM, the TGI (UACC-257 melanoma) was over 100 µM and the GI50 (UACC-62 melanoma) was 17.7 µM. The TGI (UACC-62 melanoma) was 72.3 µM, the GI50 (UO-31 renal) was 12.8 µM and the TGI (UO-31 renal) was 64.8 µM.
